# Positions of bridges follow the written chain, without caps; N, C: chain ends. Non-standard residues stand in square brackets, D forms with d. Residues, ends and D or L forms follow the SMILES beside them. Trp(1-CH2COOH) = N[C@@H](Cc1cn(CC(=O)O)c2ccccc12)C(=O)O; Phe(4-F) = N[C@@H](Cc1ccc(F)cc1)C(=O)O; Hyp = O=C(O)[C@@H]1C[C@@H](O)CN1; Aad = N[C@@H](CCCC(=O)O)C(=O)O; NMeNle = CCCC[C@H](NC)C(=O)O; Pip = O=C(O)[C@@H]1CCCCN1; NMeA = CN[C@@H](C)C(=O)O; Dab = NCC[C@H](N)C(=O)O; Dap = NC[C@H](N)C(=O)O; AEA = NCCOCC(=O)O; Ava = NCCCCC(=O)O; Sar = CNCC(=O)O
# Molecular target: T1, PD-1-Ig binding to PD-L1-TVMV-His (PD-L1-His) (Homo sapiens, UniProt Q9NZQ7)
# T1 construct: hPDL1(19-239)-TVMV-His; made in house; host or cells: HEK293T cells
# T1 sequence (Q9NZQ7 with tags, fused parts or gaps): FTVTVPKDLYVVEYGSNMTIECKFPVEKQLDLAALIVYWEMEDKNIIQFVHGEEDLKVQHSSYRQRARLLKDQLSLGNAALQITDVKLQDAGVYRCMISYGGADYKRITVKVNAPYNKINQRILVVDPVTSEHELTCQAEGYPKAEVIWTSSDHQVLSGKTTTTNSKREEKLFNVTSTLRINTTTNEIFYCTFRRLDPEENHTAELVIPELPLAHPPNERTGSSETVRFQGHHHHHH
# Experiment: PD-1/PD-L1 Homogenous Time-Resolved Fluorescence (HTRF) binding assay
# Settings: PD-1-Ig (20 nM) / PD-L1-His (10 nM); numeric values
# Excerpt: The ability of the macrocyclic peptides of the present disclosure to bind to PD-L1 was investigated using a PD-1/PD-L1 Homogenous Time-Resolved Fluorescence (HTRF) binding assay.
# Homogenous Time-Resolved Fluorescence (HTRF) Assays of Binding of Soluble PD-1 to Soluble PD-L1. Soluble PD-1 and soluble PD-L1 refers to proteins with carboxyl-end truncations that remove the transmembrane-spanning regions and are fused to heterologous sequences, specifically the Fc portion of the human immunoglobuling G sequence (Ig) or the hexahistidine epitope tag (His). All binding studies were performed in an HTRF assay buffer consisting of dPBS supplemented with 0.1% (w/v) bovine serum albumin and 0.05% (v/v) Tween-20. For the PD-1-Ig/PD-L1-His binding assay, inhibitors were pre-incubated with PD-L1-His (10 nM final) for 15 m in 4 μl of assay buffer, followed by addition of PD-1-Ig (20 nM final) in 1 μl of assay buffer and further incubation for 15 m. PD-L1 fusion proteins from either human, cynomologous macaques, mouse, or other species were used. HTRF detection was achieved using europium crypate-labeled anti-Ig monoclonal antibody (1 nM final) and allophycocyanin (APC) labeled anti-His monoclonal antibody (20 nM final). Antibodies were diluted in HTRF detection buffer and 5 μl was dispensed on top of binding reaction. […] Additional binding assays were established between PD-1-Ig/PD-L2-His (20 and 5 nM, respectively), CD80-His/PD-L1-Ig (100 and 10 nM, respectively) and CD80-His/CTLA4-Ig (10 and 5 nM, respectively).
# Recombinant Proteins. […] Human PD-L2-His (Sino Biologicals), CD80-His (Sino Biologicals), CTLA4-Ig (RnD Systems) were all obtained through commercial sources.
row,IC50 [nM],Compound
1,6.95,CCCC[C@H]1C(=O)N(C)[C@@H](CCCC)C(=O)N[C@@H](CC(C)C)C(=O)N[C@H](C(=O)NCC(N)=O)CCNCC(=O)N[C@@H](Cc2ccc(O)cc2)C(=O)N(C)[C@@H](C)C(=O)N[C@@H](CC(N)=O)C(=O)N2CCC[C@H]2C(=O)N[C@@H](Cc2cnc[nH]2)C(=O)N[C@@H](CC(C)C)C(=O)N2C[C@H](O)C[C@H]2C(=O)N[C@@H](Cc2c[nH]c3ccccc23)C(=O)NCC(=O)N[C@@H](Cc2c[nH]c3ccccc23)C(=O)N1C [Example 10027]

# Same assay, conditions: PD-1-Ig (20 nM) / PD-L1-His (10 nM); range classes
row,IC50 [nM],Compound
1,1 to 9.9,CCCC[C@H]1C(=O)N(C)[C@@H](CCCC)C(=O)N[C@@H](CCC(=O)O)C(=O)N[C@H](C(N)=O)CNCC(=O)N[C@@H](Cc2ccc(F)cc2)C(=O)N2CCCC[C@H]2C(=O)N[C@@H](CC(N)=O)C(=O)N2CCC[C@H]2C(=O)N[C@@H](Cc2c[nH]cn2)C(=O)N[C@@H](CC(=O)O)C(=O)N2C[C@H](O)C[C@H]2C(=O)N[C@@H](Cc2c[nH]c3ccccc23)C(=O)N[C@@H](C)C(=O)N[C@@H](Cc2cn(CC(=O)O)c3ccccc23)C(=O)N1C [Example 9057]
2,100 to 10000,CCCC[C@H]1C(=O)N(C)[C@@H](CCCC)C(=O)N[C@@H](CCC(=O)O)C(=O)N[C@H](C(=O)NCC(N)=O)CCNCC(=O)N[C@@H](Cc2ccc(O)cc2)C(=O)N(C)[C@@H](C)C(=O)N[C@@H](CC(=O)O)C(=O)N2CCC[C@H]2C(=O)N[C@@H](Cc2cnc[nH]2)C(=O)N[C@@H](CCC(N)=O)C(=O)N2C[C@H](O)C[C@H]2C(=O)N[C@@H](Cc2c[nH]c3ccccc23)C(=O)N[C@@H](CO)C(=O)N[C@@H](Cc2c[nH]c3ccccc23)C(=O)N1C [Example 10023]
3,1 to 9.9,CCCC[C@H]1C(=O)N(C)[C@@H](CCCC)C(=O)N[C@@H](CC(C)C)C(=O)N[C@H](C(N)=O)CCCC(=O)N[C@@H](Cc2ccc(F)cc2)C(=O)N2CCCC[C@H]2C(=O)N[C@@H](CC(N)=O)C(=O)N2CCC[C@H]2C(=O)N[C@@H](CN)C(=O)N[C@@H](CCC(=O)O)C(=O)N2C[C@H](O)C[C@H]2C(=O)N[C@@H](Cc2c[nH]c3ccccc23)C(=O)N[C@@H](CCN)C(=O)N[C@@H](Cc2cn(CC(=O)O)c3ccccc23)C(=O)N1C [Example 10532] ([Phe(4-F)][Pip]NP[Dap]E[Hyp]W[Dab][Trp(1-CH2COOH)][NMeNle][NMeNle]L[Aad]-NH2; lactam N-14)
4,10 to 99,CCCC[C@H]1C(=O)N(C)[C@@H](CCCC)C(=O)N[C@@H](CC(C)C)C(=O)N[C@H](C(=O)NCC(N)=O)CNCC(=O)N[C@@H](Cc2ccc(F)cc2)C(=O)N(C)[C@@H](C)C(=O)N[C@@H](CC(=O)O)C(=O)N2CCC[C@H]2C(=O)N[C@@H](CCC(N)=O)C(=O)N[C@@H](CCC(N)=O)C(=O)N2C[C@H](O)C[C@H]2C(=O)N[C@@H](Cc2c[nH]c3ccccc23)C(=O)N[C@@H](CC(N)=O)C(=O)N[C@@H](Cc2cn(CC(=O)O)c3ccccc23)C(=O)N1C [Example 9017]
5,10 to 99,CCCC[C@H]1C(=O)N(C)[C@@H](CCCC)C(=O)N[C@@H](CC(C)C)C(=O)N[C@H](C(=O)NCC(N)=O)CCCC(=O)N[C@@H](Cc2ccc(O)cc2)C(=O)N(C)[C@@H](C)C(=O)N[C@@H](CC(=O)O)C(=O)N2CCC[C@H]2C(=O)N[C@@H](Cc2c[nH]cn2)C(=O)N[C@@H](CCCCN)C(=O)N2C[C@H](O)C[C@H]2C(=O)N[C@@H](Cc2c[nH]c3ccccc23)C(=O)N[C@@H](CCCCN)C(=O)N[C@@H](Cc2cn(CC(=O)O)c3ccccc23)C(=O)N1C [Example 10516] (Y[NMeA]DPHK[Hyp]WK[Trp(1-CH2COOH)][NMeNle][NMeNle]L[Aad]G-NH2; lactam N-14)
6,10 to 99,CCCC[C@H]1C(=O)N(C)[C@@H](CCCC)C(=O)N[C@@H](CC(C)C)C(=O)N[C@H](C(=O)NCC(N)=O)CNCC(=O)N[C@@H](Cc2ccc(F)cc2)C(=O)N(C)[C@@H](C)C(=O)N[C@@H](CC(N)=O)C(=O)N2CCC[C@H]2C(=O)N[C@@H](CCC(N)=O)C(=O)N[C@@H](CCC(=O)O)C(=O)N2C[C@H](O)C[C@H]2C(=O)N[C@@H](Cc2c[nH]c3ccccc23)C(=O)N[C@@H](CC(N)=O)C(=O)N[C@@H](Cc2cn(CC(=O)O)c3ccccc23)C(=O)N1C [Example 9011]
7,1 to 9.9,CCCC[C@H]1C(=O)N(C)[C@@H](CCCC)C(=O)N[C@@H](CC(C)C)C(=O)N[C@H](C(=O)NCC(N)=O)CNCC(=O)N[C@@H](Cc2ccc(OC)cc2)C(=O)N2CCCC[C@H]2C(=O)N[C@@H](CC(N)=O)C(=O)N2CCC[C@H]2C(=O)N[C@@H](CN)C(=O)N[C@@H](CC(C)C)C(=O)N2C[C@H](O)C[C@H]2C(=O)N[C@@H](Cc2c[nH]c3ccccc23)C(=O)N[C@@H](CCN)C(=O)N[C@@H](Cc2cn(CC(=O)O)c3ccccc23)C(=O)N1C [Example 1040]
8,1 to 9.9,CCCC[C@H]1C(=O)N(C)[C@@H](CCCC)C(=O)N[C@@H](CC(C)C)C(=O)N[C@H](C(=O)NCC(N)=O)CNCC(=O)N[C@@H](Cc2ccc(F)cc2)C(=O)N(C)[C@@H](C)C(=O)N[C@@H](CC(N)=O)C(=O)N2CCC[C@H]2C(=O)N[C@@H](CCC(N)=O)C(=O)N[C@@H](CC(C)C)C(=O)N2C[C@H](O)C[C@H]2C(=O)N[C@@H](Cc2c[nH]c3ccccc23)C(=O)N[C@@H](CC(N)=O)C(=O)N[C@@H](Cc2cn(CC(=O)O)c3ccccc23)C(=O)N1C [Example 9009]
9,1 to 9.9,CCCC[C@H]1C(=O)N(C)[C@@H](CCCC)C(=O)N[C@@H](C)C(=O)N[C@H](C(=O)NCC(N)=O)CNCC(=O)N[C@@H](Cc2ccc(O)cc2)C(=O)N(C)[C@@H](C)C(=O)N[C@@H](CC(=O)O)C(=O)N2CCC[C@H]2C(=O)N[C@@H](Cc2cnc[nH]2)C(=O)N[C@@H](CCC(N)=O)C(=O)N2C[C@H](O)C[C@H]2C(=O)N[C@@H](Cc2c[nH]c3ccccc23)C(=O)N[C@@H](CO)C(=O)N[C@@H](Cc2cn(CC(=O)O)c3ccccc23)C(=O)N1C [Example 10014]

# The remaining lines, values behind:
row,Compound,IC50 [nM]
1,CCCC[C@H]1C(=O)N(C)[C@@H](CCCC)C(=O)N[C@@H](CC(C)C)C(=O)N(C)CC(=O)NCC(=O)N[C@@H](Cc2ccc(O)cc2)C(=O)N(C)[C@@H](C)C(=O)N[C@@H](CC(N)=O)C(=O)N2CCC[C@H]2C(=O)N[C@@H](CN)C(=O)N[C@@H](CC(C)C)C(=O)N2C[C@H](O)C[C@H]2C(=O)N[C@@H](Cc2c[nH]c3ccccc23)C(=O)N[C@@H](CCN)C(=O)N[C@@H](Cc2c[nH]c3ccccc23)C(=O)N1C [Example 5009] (cyclo([Dab]W[NMeNle][NMeNle]L[Sar]GY[NMeA]NP[Dap]L[Hyp]W)),1 to 9.9
2,CCCC[C@H]1C(=O)N(C)[C@@H](CCCC)C(=O)N[C@@H](CC(C)C)C(=O)N[C@H](C(N)=O)COCC(=O)N[C@@H](Cc2ccc(O)cc2)C(=O)N2CCCC[C@H]2C(=O)N[C@@H](CC(N)=O)C(=O)N2CCC[C@H]2C(=O)N[C@@H](CN)C(=O)N[C@@H](CC(C)C)C(=O)N2C[C@H](O)C[C@H]2C(=O)N[C@@H](Cc2c[nH]c3ccccc23)C(=O)N[C@@H](CCN)C(=O)N[C@@H](Cc2cn(CC(=O)O)c3ccccc23)C(=O)N1C [Example 10533],1 to 9.9
3,CCCC[C@H]1C(=O)N(C)[C@@H](CCCC)C(=O)N[C@@H](CC(C)C)C(=O)NCCCCC(=O)N[C@@H](Cc2ccc(OC)cc2)C(=O)N2CCCC[C@H]2C(=O)N[C@@H](CC(=O)O)C(=O)N2CCC[C@H]2C(=O)N[C@@H](CN)C(=O)N[C@@H](CC(C)C)C(=O)N2C[C@H](O)C[C@H]2C(=O)N[C@@H](Cc2c[nH]c3ccccc23)C(=O)N[C@@H](CCN)C(=O)N[C@@H](Cc2cn(CC(=O)O)c3ccccc23)C(=O)N1C [Example 10572] (cyclo([Ava]Y(Me)[Pip]DP[Dap]L[Hyp]W[Dab][Trp(1-CH2COOH)][NMeNle][NMeNle]L)),1 to 9.9
4,CCCC[C@H]1C(=O)N(C)[C@@H](CCCC)C(=O)N[C@@H](CC(C)C)C(=O)NCCOCC(=O)N[C@@H](Cc2ccc(O)cc2)C(=O)N(C)[C@@H](C)C(=O)N[C@@H](CC(N)=O)C(=O)N2CCC[C@H]2C(=O)N[C@@H](CN)C(=O)N[C@@H](CC(C)C)C(=O)N2C[C@H](O)C[C@H]2C(=O)N[C@@H](Cc2c[nH]c3ccccc23)C(=O)N[C@@H](CO)C(=O)N[C@@H](Cc2cn(CC(=O)O)c3ccccc23)C(=O)N1C [Example 10503] (cyclo([AEA]Y[NMeA]NP[Dap]L[Hyp]WS[Trp(1-CH2COOH)][NMeNle][NMeNle]L)),10 to 99
5,CCCC[C@H]1C(=O)N(C)[C@@H](CCCC)C(=O)N[C@@H](CC(C)C)C(=O)NCCCCC(=O)N[C@@H](Cc2ccc(OC)cc2)C(=O)N2CCCC[C@H]2C(=O)N[C@@H](CC(N)=O)C(=O)N2CCC[C@H]2C(=O)N[C@@H](CN)C(=O)N[C@@H](CC(C)C)C(=O)N2C[C@H](O)C[C@H]2C(=O)N[C@@H](Cc2c[nH]c3ccccc23)C(=O)N[C@@H](CCN)C(=O)N[C@@H](Cc2cn(CC(=O)O)c3ccccc23)C(=O)N1C [Example 10535] (cyclo([Ava]Y(Me)[Pip]NP[Dap]L[Hyp]W[Dab][Trp(1-CH2COOH)][NMeNle][NMeNle]L)),1 to 9.9
